Source: ChEMBL document CHEMBL1122495, “Ultra-short-acting beta-adrenergic receptor blocking agents. 3. Ethylenediamine derivatives of (aryloxy)propanolamines having esters on the aryl function” (J Med Chem, 1983)

Columns and labels:
Cavia porcellus [1] = species on record: Cavia porcellus; test: Cardioselectivity determined (Antilog [pA2 (atria) - pA2 (trachea)] )
Cavia porcellus [2] = species on record: Cavia porcellus; test: Inhibition of isoproterenol-induced responses in guinea pig trachea.; format: functional; conditions: read-out: pA2 (converted)
Cavia porcellus [3] = species on record: Cavia porcellus; test: Negative log concentration effecting 50% blockade of isoproterenol-induced rate responses in vitro in guinea pig right atria.; format: functional; conditions: read-out: pA2 (converted)
Canis lupus familiaris = test: Time for 80% recovery from 50% blockade levels after 3-h infusions of drug(in vivo)
Cavia porcellus [4] = test: Less than 80% recovery from 50% blockade levels after 3-h infusions of drug(in vivo)
Cavia porcellus [5] = species on record: Cavia porcellus; test: No blockade was observed at 10 e-6 M in guinea pig right atria (In vitro); format: functional; conditions: read-out: pA2 (converted)

Row | Compound | Selectivity (Cavia porcellus [1]) | Kb (Cavia porcellus [2]) [nM] | Kb (Cavia porcellus [3]) [nM] | Duration (Canis lupus familiaris) [min] | Duration (Cavia porcellus [4]) [min] | Kb (Cavia porcellus [5]) [nM]
1 | COC(=O)c1ccccc1OCC(O)CNCCNC(=O)Cc1ccccc1 (configuration not stated) | 4 | 20 | 5.01 | 42 |  | 
2 | COC(=O)c1ccccc1OCC(O)CNC(C)(C)CNS(=O)(=O)c1ccccc1 (configuration not stated) |  | 1.58 |  |  |  | 
3 | COC(=O)c1ccccc1OCC(O)CNCCNS(=O)(=O)N(C)C (configuration not stated) |  | 50.1 | 31.6 | 15 |  | 
4 | CCOC(=O)N1CCC(=NCC(O)COc2ccccc2C(=O)OC)CC1 (configuration not stated) |  |  | > 1000 |  |  | 
5 | COC(=O)CCc1ccccc1OCC(O)CNCCNC(=O)C(C)C (configuration not stated) |  | 20 | 25.1 |  | >60 | 
6 | COC(=O)c1ccccc1OCC(O)CNC(C)(C)CNC(N)=O (configuration not stated) | 2.5 | 3.16 | 1.26 | >60 |  | 
7 | COC(=O)c1ccccc1OCC(O)CNCCNS(=O)(=O)c1ccc(C)cc1 (configuration not stated) |  | 79.4 | 158 |  |  | 
8 | CCOC(=O)c1ccccc1OCC(O)CNC(C)(C)CNC(N)=O (configuration not stated) | 4 | 0.501 | 0.126 |  | >60 | 
9 | COC(=O)c1ccccc1OCC(O)CNC(C)(C)CNC(=O)N1CCOCC1 (configuration not stated) | 5 | 1 | 0.2 |  | >60 | 
10 | COC(=O)c1ccccc1OCC(O)CNCCNC(C)=O (configuration not stated) | 2 | 100 | 50.1 | 18 |  | 
11 | COC(=O)c1ccccc1OCC(O)CNCc1nc2ccccc2[nH]1 (configuration not stated) |  |  | 316 |  |  | 
12 | COC(=O)c1ccccc1OCC(O)CNCCNc1cc(Cl)c2ccccc2c1O (configuration not stated) |  |  | 631 |  |  | 
13 | COC(=O)/C=C/c1ccccc1OCC(O)CNCCNC(=O)C(C)C (configuration not stated) | 2 | 0.794 | 0.398 |  | >60 | 
14 | COC(=O)c1ccccc1OCC(O)CNC(C)C (configuration not stated) | 2.5 | 12.6 | 5.01 | 15 |  | 
15 | COC(=O)c1ccccc1OCC(O)CNCCNC(=O)Nc1ccccc1 (configuration not stated) | 25.1 | 200 | 7.94 |  | >60 | 
16 | COC(=O)c1ccccc1OCC(O)CN=C1CCN(C=O)CC1 (configuration not stated) |  |  | > 1000 |  |  | 
17 | COC(=O)c1ccccc1OCC(O)CNCCc1ccc(OC)c(OC)c1 (configuration not stated) |  | 79.4 |  | 30 |  | 
18 | COC(=O)c1ccccc1OCC(O)CNC(C)(C)C (configuration not stated) |  |  |  | 22 |  | 
19 | COC(=O)c1ccccc1OCC(O)CNCCNC(=O)C(C)C (configuration not stated) | 4 | 31.6 | 7.94 | 17 |  | 
20 | COC(=O)c1ccc(OCC(O)CNCCN2CCCC2)cc1 (configuration not stated) |  |  |  |  |  | > 1000
21 | COC(=O)c1ccc(OCC(O)CNC(C)C)cc1 (configuration not stated) |  | 3160 |  |  |  | 
22 | CCOC(=O)c1ccccc1OCC(O)CNCCNC(=O)C(C)C (configuration not stated) | 6.3 | 20 | 3.16 | 40 |  | 
23 | COC(=O)c1ccc(OCC(O)CNCCN2CCOCC2)cc1 (configuration not stated) |  |  |  |  |  | > 1000
24 | CCOC(=O)NCC(C)(C)NCC(O)COc1ccccc1C(=O)OC (configuration not stated) | 2.5 | 6.31 | 2.51 | 30 |  | 
25 | Cc1ccccc1OCC(O)CNCCNC(=O)C(C)C (configuration not stated) | 4 | 20 | 5.01 |  | >60 | 
26 | COC(=O)c1ccccc1OCC(O)CNCCNc1ccc([N+](=O)[O-])cn1 (configuration not stated) | 2.5 | 79.4 | 31.6 | 15 |  | 
27 | COC(=O)c1ccc(OCC(O)CNCCN2CCCCC2)cc1 (configuration not stated) |  |  |  |  |  | > 1000
28 | Cc1ccccc1OCC(O)CNC(C)C (configuration not stated) | 2.5 | 6.31 | 2.51 |  | >60 | 
29 | CC(C)NCC(O)COc1cccc2ccccc12 (configuration not stated) [PROPRANOLOL] |  |  |  |  | >60 | 
